Values quoted from earlier work in patent US12281362B2, “Diagnostic tools and treatments for clear cell renal cell carcinoma” (University of Cincinnati, priority 2020, dated 2025).

What was measured:
[1] = clinic
[2] = test system: localized RCC; conditions: adjuvant setting

Compound | adverse effects [1] | survival [2]
CCN(CC)CCNC(=O)c1c(C)[nH]c(/C=C2\C(=O)Nc3ccc(F)cc32)c1C [Sunitinib] | serious adverse effects | 
CNC(=O)c1cc(Oc2ccc(NC(=O)Nc3ccc(Cl)c(C(F)(F)F)c3)cc2)ccn1 [sorafenib] |  | did not improve survival
